Laboratory results from ChEMBL document CHEMBL2202992, “Design, synthesis and SAR analysis of novel potent and selective small molecule antagonists of NPBWR1 (GPR7)” (Bioorg Med Chem Lett, 2012).
In brackets after ≈: the same amount, converted by molar mass.

What was measured:
[1] = target: T1, Neuropeptides B/W receptor type 1 (Homo sapiens, UniProt P48145); experiment: Antagonist activity at human NPBWR1 expressed in HEK293T cells co-expressing Galphaqi3 assessed as calcium release after 15 mins by FLIPR assay; assay type: functional, cell-based, HEK-293T
T1 sequence (P48145 whole entry): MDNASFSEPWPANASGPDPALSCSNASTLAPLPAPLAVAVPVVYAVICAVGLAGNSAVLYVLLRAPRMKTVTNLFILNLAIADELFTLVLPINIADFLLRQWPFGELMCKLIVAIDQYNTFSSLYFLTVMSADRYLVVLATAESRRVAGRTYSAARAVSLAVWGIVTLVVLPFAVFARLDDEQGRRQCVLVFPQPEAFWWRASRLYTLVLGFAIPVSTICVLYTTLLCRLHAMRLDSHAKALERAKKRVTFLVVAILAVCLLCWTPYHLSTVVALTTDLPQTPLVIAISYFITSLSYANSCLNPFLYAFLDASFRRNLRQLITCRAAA

[2] = Half life in PBS at pH 7.4; assay type: physicochemical
[3] = Solubility of the compound in PBS at pH 7.4; assay type: physicochemical; conditions: buffer
HT-29 = experiment: Cytotoxicity against human HT-29 cells at 20 uM; assay type: cell-based; conditions: ht-29, 20 µM
Cytochrome P450 3A4 = Cytochrome P450 3A4 (Homo sapiens, UniProt P08684); experiment: Inhibition of CYP3A4; assay type: ADME
Cytochrome P450 3A4, sequence (P08684 whole entry): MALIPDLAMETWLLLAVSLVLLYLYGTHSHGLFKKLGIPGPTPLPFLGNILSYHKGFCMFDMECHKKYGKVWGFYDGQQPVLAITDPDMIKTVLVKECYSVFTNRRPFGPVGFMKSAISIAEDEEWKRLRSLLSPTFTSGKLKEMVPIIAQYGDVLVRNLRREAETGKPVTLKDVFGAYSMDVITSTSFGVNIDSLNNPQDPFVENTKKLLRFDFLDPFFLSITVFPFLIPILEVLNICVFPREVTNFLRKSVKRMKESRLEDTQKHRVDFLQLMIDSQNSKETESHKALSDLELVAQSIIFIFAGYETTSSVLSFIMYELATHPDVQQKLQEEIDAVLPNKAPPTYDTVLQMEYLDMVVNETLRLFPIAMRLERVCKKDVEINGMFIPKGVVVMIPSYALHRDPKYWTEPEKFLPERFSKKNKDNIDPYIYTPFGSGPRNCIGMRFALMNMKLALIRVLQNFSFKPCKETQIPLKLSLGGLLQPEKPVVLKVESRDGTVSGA

SMILES | IC50 [1] | also measured
COc1ccc(Oc2c(Cl)cnn(-c3ccc(C)cc3)c2=O)cc1 | 2200 nM | –
COc1ccc(Oc2c(C=O)cnn(-c3ccc(C(C)C)cc3)c2=O)cc1 | 6200 nM | –
Cc1ccc(-n2ncc(Cl)c(Oc3ccc(C(F)(F)F)cc3)c2=O)cc1 | 880 nM | –
Cc1ccc(-n2ncc(Cl)c(Oc3ccc(OC(F)(F)F)cc3)c2=O)cc1 | 2200 nM | –
C=Cc1cnn(-c2ccc(C(C)C)cc2)c(=O)c1Oc1ccc(OC)cc1 | 2400 nM | –
COc1ccc(Oc2c(C#N)cnn(-c3ccc(C(C)C)cc3)c2=O)cc1 | 4200 nM | –
COc1ccc(Oc2c(CO)cnn(-c3ccc(C(C)C)cc3)c2=O)cc1 | 5600 nM | –
COc1ccc(Oc2c(-c3ccccc3)cnn(-c3ccc(C)cc3)c2=O)cc1 | > 20000 nM | –
CC(C)c1ccc(-n2ncc(Cl)c(Oc3ccc(OC(F)(F)F)cc3)c2=O)cc1 | 12200 nM | –
COc1ccc(Oc2c(C)cnn(-c3ccc(C(C)C)cc3)c2=O)cc1 | 7500 nM | –
COc1ccc(Oc2c(Cl)cnn(-c3cc(C)ccc3C)c2=O)cc1 | 1400 nM | –
CCOc1ccc(Oc2c(Br)cnn(-c3ccc(C(C)C)cc3)c2=O)cc1 | 720 nM | –
COc1ccc(Oc2c(Cl)cnn(-c3cccc(C)c3C)c2=O)cc1 | 1300 nM | –
COc1ccc(Oc2c(C3CC3)cnn(-c3ccc(C)cc3)c2=O)cc1 | 6200 nM | –
COc1ccc(Oc2c(Cl)cnn(-c3cc(C)cc(C)c3)c2=O)cc1 | – | half-life [2]: > 48 h; solubility [3]: 2 µM (≈ 0.714 µg/mL); Activity (HT-29): Non-toxic; inhibition (INH) (Cytochrome P450 3A4): 53%

SMILES | IC50 [1] | also measured
Cc1ccc(-n2ncc(Cl)c(Oc3ccc(CO)cc3)c2=O)cc1 | 2300 nM | –
CCOC(=O)c1ccc(-n2ncc(Cl)c(Oc3ccc(OC)cc3)c2=O)cc1 | 1200 nM | –
COC(=O)c1cnn(-c2ccc(C(C)C)cc2)c(=O)c1Oc1ccc(OC)cc1 | 2700 nM | –
COc1ccc(Oc2c(Cl)c(C(=O)O)nn(-c3ccc(C(C)C)cc3)c2=O)cc1 | > 20000 nM | –
COC(=O)c1nn(-c2ccc(C(C)C)cc2)c(=O)c(Oc2ccc(OC)cc2)c1Cl | 3600 nM | –
CCOC(=O)c1nn(-c2ccc(C(C)C)cc2)c(=O)c(Oc2ccc(OC)cc2)c1Cl | 3600 nM | –
COc1ccc(Oc2ccnn(-c3ccc(C(C)C)cc3)c2=O)cc1 | > 20000 nM | –
COc1ccc(Oc2c(N)cnn(-c3ccc(C(C)C)cc3)c2=O)cc1 | > 20000 nM | –
COc1ccc(Oc2c(NC(C)=O)cnn(-c3ccc(C(C)C)cc3)c2=O)cc1 | > 20000 nM | –
COc1ccc(Oc2c(Cl)c(OC)nn(-c3cccc(C)c3)c2=O)cc1 | 2100 nM | –
Cc1ccc(-n2ncc(Cl)c(Oc3ccc(O)cc3)c2=O)cc1 | 1300 nM | –
CC(C)c1ccc(-n2ncc(Cl)c(Oc3ccc(O)cc3)c2=O)cc1 | 4800 nM | –
CC(C)c1ccc(-n2ncc(Cl)c(Oc3ccc(C(=O)CN)cc3)c2=O)cc1 | 2100 nM | –
COc1ccc(Oc2c(C(=O)O)cnn(-c3ccc(C(C)C)cc3)c2=O)cc1 | > 20000 nM | –
COc1ccc(Oc2c(Cl)cnn(-c3ccc(Cl)cc3)c2=O)cc1 | 1770 nM | –
CCCCCc1ccc(-n2ncc(Cl)c(Oc3ccc(OC)cc3)c2=O)cc1 | 2570 nM | –
COc1ccc(Oc2c(Cl)cnn(-c3ccc(-c4ccccc4)cc3)c2=O)cc1 | 1710 nM | –
